According to patent US9868748B2, “Thiazolopyrrolidine inhibitors of ROR- γ” (Vitae Pharmaceuticals, Inc., priority 2013, dated 2018):
Like-named read-outs stand apart in the source and are kept apart here.

How the values were obtained:
[1] = biological target: recombinant RORγ Ligand Binding Domain (LBD) protein (Homo sapiens (Human), UniProt P51449); experiment: Radio-Ligand RORγ Binding Assay (Assay 1); conditions: competition with 25-hydroxy [26,27-3H]-cholesterol, SPA, read-out: RORγ Binding Ki Range*
How it was run: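 Recombinant human RORγ ligand binding domain (6×His-GST fusion, 24 nM stock) competed with tritiated 25-hydroxycholesterol (8.6 nM stock) in HEPES buffer pH 7.4 with detergents and DTT; poly-Lys YSi SPA beads, room temperature, tritium SPA signal. Four-parameter IC50 from semi-log dilutions, normalised to DMSO and 10 μM T0901317, then Ki via KD equation.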

[2] = biological target: full-length RORγt in Jurkat cells (Homo sapiens (Human), UniProt P51449); experiment: RORγt 5xRORE Assay in Jurkat Cells (Assay 2); assay type: cell-based; conditions: Nanoluc luciferase reporter, 16-18 hrs
How it was run: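 Inverse agonist activity was read as NanoGlo luminescence from conditioned medium after 16–18 h compound exposure (37 °C, 0.1% DMSO final). The cells were Jurkat, transiently transfected with RORγt and a secNluc reporter carrying five RORE repeats, seeded 80,000 per well in delipidated-serum RPMI.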

[3] = Table 9, read-out: RORγt5X IC50 Range*

Sequence of recombinant RORγ Ligand Binding Domain (LBD) protein (P51449 269-508): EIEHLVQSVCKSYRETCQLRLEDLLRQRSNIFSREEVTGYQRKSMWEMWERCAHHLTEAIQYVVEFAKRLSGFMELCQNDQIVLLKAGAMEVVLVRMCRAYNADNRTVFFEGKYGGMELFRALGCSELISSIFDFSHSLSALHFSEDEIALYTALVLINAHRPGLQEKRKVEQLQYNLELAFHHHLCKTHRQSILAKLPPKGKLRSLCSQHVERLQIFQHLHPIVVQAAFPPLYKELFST
Sequence of full-length RORγt in Jurkat cells (P51449 other isoform, or with tags, fused parts or gaps): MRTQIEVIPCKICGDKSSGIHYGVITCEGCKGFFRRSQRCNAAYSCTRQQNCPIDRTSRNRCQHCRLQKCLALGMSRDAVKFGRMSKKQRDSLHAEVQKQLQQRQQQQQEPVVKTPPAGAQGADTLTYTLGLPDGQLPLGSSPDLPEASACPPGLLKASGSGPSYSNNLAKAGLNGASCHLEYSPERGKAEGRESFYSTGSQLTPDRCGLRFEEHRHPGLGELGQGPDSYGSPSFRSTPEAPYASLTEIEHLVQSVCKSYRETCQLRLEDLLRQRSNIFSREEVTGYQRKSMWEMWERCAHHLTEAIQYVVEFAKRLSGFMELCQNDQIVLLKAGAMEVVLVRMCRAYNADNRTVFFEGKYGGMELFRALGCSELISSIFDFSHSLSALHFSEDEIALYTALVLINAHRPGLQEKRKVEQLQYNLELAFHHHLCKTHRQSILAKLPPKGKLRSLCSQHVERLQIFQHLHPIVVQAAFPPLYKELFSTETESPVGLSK

Row | Ki ([1]; Table 8) [µM] | IC50 ([2]; Table 8, read-out: RORγt5X IC50 Range*) [µM] | Ki ([1]; Table 9) [µM] | IC50 [2, 3] [µM] | Compound
1 | < 0.1 | > 1 | – | – | CCS(=O)(=O)c1ccc(CC(=O)Nc2nc3c(s2)CN(Cc2ccc(F)cc2)[C@H]3C(C)C)cc1 [I-A14]
2 | – | – | < 0.1 | < 0.1 | CCS(=O)(=O)c1ccc(CC(=O)Nc2nc3c(s2)CN(Cc2ccc(-c4ccc(=O)n(C)c4)cc2)[C@H]3C(C)C)nc1
3 | – | – | < 0.1 | 0.1 to 1 | CCS(=O)(=O)c1ccc(CC(=O)Nc2nc3c(s2)CN(Cc2ccc(OC(F)(F)F)cc2)[C@@H]3C(C)C)cc1
4 | – | – | < 0.1 | > 1 | CCS(=O)(=O)c1ccc(CC(=O)Nc2nc3c(s2)CN(c2ncc(C(F)(F)F)cn2)[C@H]3C(C)C)cc1
